# Experimental data reported in publication PMC10892120, “Design, Synthesis and Biological Assessment of N′-(2-Oxoindolin-3-ylidene)-6-methylimidazo[2,1-b]thiazole-5-carbohydrazides as Potential Anti-Proliferative Agents toward MCF-7 Breast Cancer” (Pharmaceuticals, 2024).
# How the values were obtained:
# MCF-7 breast cell line = assay: MTT assay, anti-proliferative activity toward MCF-7; format: cell-based; details: Homo sapiens, MCF7
# Procedure: . The developed compounds were evaluated in vitro using the MTT cell viability assay following the published techniques (Supplementary Data, page 42). […]
# The 96 well tissue culture plate was seeded with 1 X 10^5 cells / ml (100 ul / well) and cultured at 37 degrees Celsius for 24 hours to form a full monolayer sheet. After forming a confluent sheet of cells, growth medium was decanted from 96 well micro titer plates, the cell monolayer was washed twice with wash media, and two-fold dilutions of the tested sample were prepared in RPMI medium with 2% serum (maintenance medium). In each well, 0.1 ml of each dilution was examined, with three wells serving as controls and receiving only maintenance media.
# The plate was incubated at 37 degrees Celsius and then analyzed. Cells were examined for any physical evidence of toxicity, such as partial or total monolayer loss, rounding, shrinkage, or cell granulation. MTT solution (5mg/ml in PBS) was prepared (BIO BASIC CANADA INC), and 20ul MTT solution was added to each well. Shake the MTT into the medium for 5 minutes at 150rpm on a shaking table. Incubate for 4 hours (37°C, 5% CO2) to allow the MTT to be digested. Remove the media. (If required, dry plate on paper towels to remove residue. In 200ul DMSO, resuspend formazan (MTT metabolic product). Shake at 150rpm for 5 minutes to properly mix the formazan into the solvent. At 560nm, measure optical density and subtract background at 620nm. The optical density should be proportional to the number of cells. MCF-7 and MCF-10A cell lines were provided with 10% fetal bovine serum (FBS, Sigma-Aldrich, MO, USA). Data are presented as the mean of the IC50 values ± SD from three different experiments. […]
# Caspase-8 = assay: RT-PCR gene expression in treated MCF-7 cells: caspase 8; format: cell-based; details: treated MCF-7 cells vs untreated control MCF-7 (=1)
# Procedure: The gene expression levels of apoptosis genes in MCF-7 cells were measured using RT-PCR to validate the apoptosis-inducing behaviors of the potent lead compound 6i in MCF-7 cells.
# The gene expression levels of apoptosis genes were evaluated in MCF-7 cells using the following approaches in the Supplementary Data, page 43.
# Inhibitor solution of each well labeled as “Test Inhibitor”. For the “Positive Control" and “Blank”, add 5 μl of the same solution without inhibitor (Inhibitor buffer). Prepare 3 ml of 1x Kinase Buffer 1 by mixing 600 μl of 5x Kinase Buffer 1 with 2400 μl water. 3 ml of 1x Kinase Buffer 1 is sufficient for 100 reactions. To the wells designated as "Blank", add 20 μl of 1x Kinase Buffer 1.
# Thaw VEGFR2 enzyme on ice. Upon first thaw, briefly spin tube containing enzyme to recover full content of the tube. Calculate the amount of VEGFR2 required for the assay and dilute enzyme to 1 ng/μl with 1x Kinase Buffer 1. Store remaining undiluted enzyme in aliquots at -80°C. Note:
# VEGFR2 enzyme is sensitive to freeze/thaw cycles. Avoid multiple freeze/thaw cycles. […]
# use thawed aliquots or diluted enzyme. […]
# thoroughly, and then centrifuge at 4°C to collect contents to the bottom of the tube. […] Preparation of a reaction cocktail is crucial in quantitative PCR applications to reduce pipetting errors and maximize assay precision and accuracy. […]
smiles,measurement,setting,value
"CCCCN1C(=O)C(=NNC(=O)c2c(C)nc3sccn23)c2ccccc21 [Compound 6i, N′-(1-Butyl-2-oxoindolin-3-ylidene)-6-methylimidazo[2,1-b]thiazole-5-carbohydrazide]",IC50,MCF-7 breast cell line,8.38 ± 0.62 µM
same,RT-PCR Fold Change Caspase-8,Caspase-8,2.727 fold
